From ChEMBL document CHEMBL1153782, “3D QSAR study of the toxicity of trichothecene mycotoxins” (Eur J Med Chem, 2009) come the findings set out here.

Assay [1] deals with Saccharomyces cerevisiae. The experiment in a line: Cytotoxicity against yeast cells assessed as logarithm of ratio of toxicity of test compound to Tetraol. It is filed as functional, organism-based.
Assay [2] deals with Saccharomyces cerevisiae. The experiment in a line: Cytotoxicity against yeast cells relative to Tetraol. It is filed as functional, organism-based.

`CC(=O)OC[C@]12CCC(C)=C[C@H]1O[C@@H]1[C@H](O)[C@@H](OC(C)=O)[C@@]2(C)[C@]12CO2`: the Activity in assay [1] is 343. Moreover, the Ratio in assay [2] was 343.

As to `CC(=O)OC[C@]12CCC(C)=C[C@H]1O[C@@H]1[C@H](OC(C)=O)[C@@H](OC(C)=O)[C@@]2(C)[C@]12CO2`, in assay [1], the Activity came to 2.2. The Ratio in assay [2] was determined as 2.2.
